Test results taken from article PMC7714071, “Interaction of amyloid beta with humanin and acetylcholinesterase is modulated by ATP” (FEBS Open Bio, 2020).

Legend:
A549 cells = conditions: cited from earlier work
Method: Since addition of ATP appears to increase binding of HN to Aβ, and conversely, decreases the interaction of Aβ with AChE (Figs 3, 4, 5, 6), we tested the effect of added ATP on A549 and H1299 cell viability (Fig. 7). Exogenously added ATP at either 100 µM or 1 mM had no effect on viability of either A549 (Fig. 7A) or H1299 cells (Fig. 7B).

AChE = experiment: ELISA, binding of biotinylated-Aβ42 to immobilised AChE; design: species or system human
Excerpt: Most of the material used was purchased as we previously reported. Nitrocellulose membranes, PBS, ATP, recombinant human AChE (C1682, UniProt accession ID: C9JD78), streptavidin‐conjugated horseradish peroxidase (HRP) conjugate, Ponceau S solution, PMSF, and HS sodium salt from bovine kidney were purchased from Sigma‐Aldrich (St. Louis, MO, USA). Mouse IgG isotype control (mIgG), ultra 3,3′,5,5′‐tetramethylbenzidine (TMB)‐ELISA substrate solution, Halt Protease and Phosphatase Inhibitor Cocktail, HN polyclonal antibody (rabbit, PA1‐41610), and Nunc MaxiSorpTM 96‐well flat bottom plates were from Thermo Fisher (Waltham, MA, USA). […]
ELISAs were carried out as we previously reported. […] TBST was then used to wash the wells 4× before proceeding in one of two ways: (a) biotinylated samples were analyzed by adding 100 µL streptavidin–HRP conjugate in TBST (1 : 2500 dilution) to the samples followed by incubation for 3 h at RT on a shaker, or (b) samples without biotin were analyzed by adding 100 µL TBST containing the primary antibody as per the manufacturer's recommendation, incubating for 3 h at RT on a shaker, followed by washing the wells 4× with TBST. […] The reaction was stopped with 100 µL 2 M H2SO4 after incubating at RT for 0.5–15 min, resulting in a yellow color change, measured by absorbance at 450 nm. […] Statistical analysis was determined by the […]

Humanin [HN]
cell viability upon ID of HN (A549 cells; HN immunodepleted from A549 conditioned media): diminished cell viability | apoptosis upon ID of HN (A549 cells; HN-ID A549 media): increased apoptosis

Nc1ncnc2c1ncn2[C@@H]1O[C@H](COP(=O)(O)OP(=O)(O)OP(=O)(O)O)[C@@H](O)[C@H]1O [ATP, Adenosine triphosphate]
effect of ATP on affinity of AChE to Aβ42 (AChE; 200 μM ATP, 30 min preincubation RT, pH 7.5, 10 mM MgCl2, three experiments in triplicate, Fig. 3B): reduced the affinity | effect of ATP on A549 cell viability (A549 cells; 100 μM or 1 mM ATP): no effect

heparan sulfate [HS]
effect of HS on binding of Aβ42 to AChE (AChE; AChE 10 nM on wells, biotinylated-Aβ 1 μM, increasing HS, three independent assays, Fig. 2C): No effects
